# According to the NIST ThermoML archive (doi:10.1016/j.fluid.2014.11.020):
# Numbers after ± are expanded uncertainties.
# Experiment: activity coefficient (dimensionless); of the first substance listed, at infinite dilution; xn = mol fraction of the nth substance listed
# Settings: Liquid, Chromatography, x1 = 0
structure (smiles),measurement,setting,value
CCCCCCCCCCCCC [tridecane] + CCCOC[n+]1ccc(N(C)C)cc1.O=S(=O)([N-]S(=O)(=O)C(F)(F)F)C(F)(F)F,activity coefficient,323.15 K,102 ± 7
same,activity coefficient,333.15 K,96.4 ± 6.6
same,activity coefficient,343.15 K,81.9 ± 5.6
CCCCCCCCCCCCC [tridecane] + CCCOC[n+]1ccn(C)c1.F[B-](F)(F)F,activity coefficient,323.15 K,1640 ± 110
same,activity coefficient,333.15 K,1630 ± 110
same,activity coefficient,343.15 K,1630 ± 110
CCCCCCCCCCCCC [tridecane] + CCCOC[n+]1ccn(C)c1.N#C[N-]C#N,activity coefficient,323.15 K,1150 ± 79
same,activity coefficient,333.15 K,1030 ± 71
same,activity coefficient,343.15 K,916 ± 63
CCCCCCCCCCCCC [tridecane] + CCCOC[n+]1ccn(C)c1.O=S(=O)([N-]S(=O)(=O)C(F)(F)F)C(F)(F)F,activity coefficient,323.15 K,201 ± 14
same,activity coefficient,333.15 K,165 ± 11
same,activity coefficient,343.15 K,147 ± 10
CCN(CC)CC [triethylamine] + CCCCCCCCn1cc[n+](COCCC)c1C.O=S(=O)([N-]S(=O)(=O)C(F)(F)F)C(F)(F)F,activity coefficient,323.15 K,1.2 ± 0.08
CCN(CC)CC [triethylamine] + CCCOC[n+]1ccn(C)c1.N#C[N-]C#N,activity coefficient,323.15 K,10.3 ± 0.7
same,activity coefficient,333.15 K,15.7 ± 1.1
same,activity coefficient,343.15 K,24.8 ± 1.7
CCN(CC)CC [triethylamine] + CCCOC[n+]1ccn(Cc2ccccc2)c1.N#C[N-]C#N,activity coefficient,323.15 K,9.22 ± 0.63
CCN(CC)CC [triethylamine] + Cn1cc[n+](COCCCOC[n+]2ccn(C)c2)c1.N#C[N-]C#N.N#C[N-]C#N,activity coefficient,323.15 K,54.6 ± 3.7
same,activity coefficient,333.15 K,52.5 ± 3.6
same,activity coefficient,343.15 K,50.5 ± 3.5
CCCCCCCCCCC [undecane] + CCCCCCCCn1cc[n+](COCCC)c1C.N#C[N-]C#N,activity coefficient,323.15 K,20.6 ± 1.4
same,activity coefficient,333.15 K,19.6 ± 1.3
same,activity coefficient,343.15 K,18.2 ± 1.2
CCCCCCCCCCC [undecane] + CCCCCCCCn1cc[n+](COCCC)c1C.O=S(=O)([N-]S(=O)(=O)C(F)(F)F)C(F)(F)F,activity coefficient,323.15 K,11.2 ± 0.76
same,activity coefficient,333.15 K,10.5 ± 0.72
same,activity coefficient,343.15 K,9.8 ± 0.67
CCCCCCCCCCC [undecane] + CCCCCCCCn1cc[n+](COCCCOC[n+]2ccn(CCCCCCCC)c2C)c1C.N#C[N-]C#N.N#C[N-]C#N,activity coefficient,323.15 K,24.4 ± 1.7
same,activity coefficient,333.15 K,23.4 ± 1.6
same,activity coefficient,343.15 K,22.4 ± 1.5
CCCCCCCCCCC [undecane] + CCCCCCCCn1cc[n+](COCCCOC[n+]2ccn(CCCCCCCC)c2C)c1C.O=S(=O)([N-]S(=O)(=O)C(F)(F)F)C(F)(F)F.O=S(=O)([N-]S(=O)(=O)C(F)(F)F)C(F)(F)F,activity coefficient,323.15 K,12.4 ± 0.85
same,activity coefficient,333.15 K,11.1 ± 0.76
same,activity coefficient,343.15 K,10.6 ± 0.72
CCCCCCCCCCC [undecane] + CCCOC[n+]1ccc(N(C)C)cc1.O=S(=O)([N-]S(=O)(=O)C(F)(F)F)C(F)(F)F,activity coefficient,323.15 K,55.7 ± 3.8
same,activity coefficient,333.15 K,52.9 ± 3.6
same,activity coefficient,343.15 K,46.6 ± 3.2
CCCCCCCCCCC [undecane] + CCCOC[n+]1ccn(C)c1.F[B-](F)(F)F,activity coefficient,323.15 K,911 ± 63
same,activity coefficient,333.15 K,883 ± 61
same,activity coefficient,343.15 K,780 ± 54
CCCCCCCCCCC [undecane] + CCCOC[n+]1ccn(C)c1.N#C[N-]C#N,activity coefficient,323.15 K,556 ± 38
same,activity coefficient,333.15 K,504 ± 35
same,activity coefficient,343.15 K,432 ± 30
CCCCCCCCCCC [undecane] + CCCOC[n+]1ccn(C)c1.O=S(=O)([N-]S(=O)(=O)C(F)(F)F)C(F)(F)F,activity coefficient,323.15 K,89.7 ± 6.2
same,activity coefficient,333.15 K,85.9 ± 5.9
same,activity coefficient,343.15 K,75.3 ± 5.2
CCCCCCCCCCC [undecane] + CCCOC[n+]1ccn(Cc2ccccc2)c1.F[B-](F)(F)F,activity coefficient,323.15 K,352 ± 24
same,activity coefficient,333.15 K,301 ± 21
same,activity coefficient,343.15 K,286 ± 20
CCCCCCCCCCC [undecane] + CCCOC[n+]1ccn(Cc2ccccc2)c1.N#C[N-]C#N,activity coefficient,323.15 K,208 ± 14
same,activity coefficient,333.15 K,175 ± 12
same,activity coefficient,343.15 K,140 ± 9.6
CCCCCCCCCCC [undecane] + CCCOC[n+]1ccn(Cc2ccccc2)c1.O=S(=O)([N-]S(=O)(=O)C(F)(F)F)C(F)(F)F,activity coefficient,323.15 K,41.6 ± 2.9
same,activity coefficient,333.15 K,31 ± 2.1
same,activity coefficient,343.15 K,27.7 ± 1.9
CCCCCCCCCCC [undecane] + CN(C)c1cc[n+](COCCCOC[n+]2ccc(N(C)C)cc2)cc1.O=S(=O)([N-]S(=O)(=O)C(F)(F)F)C(F)(F)F.O=S(=O)([N-]S(=O)(=O)C(F)(F)F)C(F)(F)F,activity coefficient,323.15 K,114 ± 7.8
same,activity coefficient,333.15 K,99 ± 6.8
same,activity coefficient,343.15 K,88.6 ± 6.1
CCCCCCCCCCC [undecane] + Cn1cc[n+](COCCCOC[n+]2ccn(C)c2)c1.N#C[N-]C#N.N#C[N-]C#N,activity coefficient,323.15 K,938 ± 65
same,activity coefficient,333.15 K,899 ± 62
same,activity coefficient,343.15 K,797 ± 55
CCCCCCCCCCC [undecane] + Cn1cc[n+](COCCCOC[n+]2ccn(C)c2)c1.O=S(=O)([N-]S(=O)(=O)C(F)(F)F)C(F)(F)F.O=S(=O)([N-]S(=O)(=O)C(F)(F)F)C(F)(F)F,activity coefficient,323.15 K,193 ± 13
same,activity coefficient,333.15 K,191 ± 13
same,activity coefficient,343.15 K,162 ± 11
CCCCCCCCCCC [undecane] + N#C[N-]C#N.N#C[N-]C#N.c1ccc(Cn2cc[n+](COCCCOC[n+]3ccn(Cc4ccccc4)c3)c2)cc1,activity coefficient,323.15 K,554 ± 38
same,activity coefficient,333.15 K,508 ± 35
same,activity coefficient,343.15 K,457 ± 31
